Here are results for three molecules from ChEMBL document CHEMBL5380808, “Design, Synthesis, and Biological Activity of Marinacarboline Analogues as STAT3 Pathway Inhibitors for Docetaxel-Resistant Triple-Negative Breast Cancer” (J Med Chem, 2023).

For assay [1], the system named is MDA-MB-231. The assay is described as follows: Antiproliferative activity against SiRNA mediated STAT3 knockdown docetaxel-resistant human MDA-MB-231-DTR cells assessed as restoration of drug sensitivity by measuring cell viability at 0.5 to 4 uM incubated for 72 hrs by MTT assay. The class given is functional, cell-based. The following applies: dose 0.5-4 µM. In general terms: Formazan colour is commonly taken as a measure of viable cells.

Assay [2] in a line: Synergistic antiproliferative activity against docetaxel-resistant human MDA-MB-231-DTR cells assessed as combination index at 2 uM incubated for 72 hrs in presence of 8 uM of N-(2-(1H-Indol-3-yl)ethyl)-1-(4-bromobenzoyl)-9H-pyrido(3,4-b)indole-3-carboxamide by Chou-Talalay method. The class given is functional.
In assay [3] the test system is MDA-MB-231. The assay is described as follows: Antitumor activity against docetaxel-resistant human MDA-MB-231-DTR cells xenografted in BALB/c mouse assessed as reduction in tumor volume at 5 mg/kg, ip daily for 12 days in presence of N-(2-(1H-Indol-3-yl)ethyl)-1-(4-bromobenzoyl)-9H-pyrido(3,4-b)indole-3-carboxamide. The following applies: time 12.0 day. Format: functional, organism-based.

Assay [4] can be described thus: Synergistic antiproliferative activity against docetaxel-resistant human MDA-MB-231-DTR cells assessed as combination index at 1 uM incubated for 72 hrs in presence of 4 uM of N-(2-(1H-Indol-3-yl)ethyl)-1-(4-bromobenzoyl)-9H-pyrido(3,4-b)indole-3-carboxamide by Chou-Talalay method. The class given is functional.
The nature of assay [5]: Synergistic antiproliferative activity against docetaxel-resistant human MDA-MB-231-DTR cells assessed as combination index at 2 uM incubated for 72 hrs in presence of 4 uM of N-(2-(1H-Indol-3-yl)ethyl)-1-(4-bromobenzoyl)-9H-pyrido(3,4-b)indole-3-carboxamide by Chou-Talalay method. The class given is functional.
Assay [6] concerns MDA-MB-231. The assay is described as follows: Antitumor activity against docetaxel-resistant human MDA-MB-231-DTR cells xenografted in BALB/c mouse assessed as tumor growth inhibition at 5 mg/kg, ip daily for 12 days. The class given is functional, organism-based. The conditions noted are these: time 12.0 day. For orientation: Xenograft models place foreign cells or tissue in a host animal.

Assay [7] can be described thus: Fold resistance, ratio of IC50 for antiproliferative activity against docetaxel-resistant human MDA-MB-231-DTR cells to IC50 for antiproliferative activity against human MDA-MB-231 cells. The class given is functional.
The test system of assay [8] is MDA-MB-231. The assay is described as follows: Antiproliferative activity against human MDA-MB-231 cells transfected with STAT3 plasmid to overexpress STAT3 assessed as effect on cell viability at 10 to 80 nM incubated for 72 hrs by MTT assay. Format: functional, cell-based. The conditions noted are these: dose 10-80 nM.
The nature of assay [9]: Synergistic antiproliferative activity against docetaxel-resistant human MDA-MB-231-DTR cells assessed as combination index at 1 uM incubated for 72 hrs in presence of 8 uM of N-(2-(1H-Indol-3-yl)ethyl)-1-(4-bromobenzoyl)-9H-pyrido(3,4-b)indole-3-carboxamide by Chou-Talalay method. The class given is functional.
Assay [10] is described as follows: Synergistic antiproliferative activity against docetaxel-resistant human MDA-MB-231-DTR cells assessed as combination index at 4 uM incubated for 72 hrs in presence of 8 uM of N-(2-(1H-Indol-3-yl)ethyl)-1-(4-bromobenzoyl)-9H-pyrido(3,4-b)indole-3-carboxamide by Chou-Talalay method. Format: functional.
Assay [11] can be described thus: Synergistic antiproliferative activity against docetaxel-resistant human MDA-MB-231-DTR cells assessed as combination index at 2 uM incubated for 72 hrs in presence of 2 uM of N-(2-(1H-Indol-3-yl)ethyl)-1-(4-bromobenzoyl)-9H-pyrido(3,4-b)indole-3-carboxamide by Chou-Talalay method. Format: functional.
A short description of assay [12]: Synergistic antiproliferative activity against docetaxel-resistant human MDA-MB-231-DTR cells assessed as combination index at 1 uM incubated for 72 hrs in presence of 2 uM of N-(2-(1H-Indol-3-yl)ethyl)-1-(4-bromobenzoyl)-9H-pyrido(3,4-b)indole-3-carboxamide by Chou-Talalay method. The class given is functional.
Assay [13] concerns MDA-MB-231. The assay is described as follows: Antitumor activity against docetaxel-resistant human MDA-MB-231-DTR cells xenografted in BALB/c mouse assessed as reduction in tumor weight at 5 mg/kg, ip daily for 12 days in presence of N-(2-(1H-Indol-3-yl)ethyl)-1-(4-bromobenzoyl)-9H-pyrido(3,4-b)indole-3-carboxamide. The class given is functional, organism-based. The conditions noted are these: time 12.0 day.

Assay [14] is described as follows: Synergistic antiproliferative activity against docetaxel-resistant human MDA-MB-231-DTR cells assessed as combination index at 4 uM incubated for 72 hrs in presence of 2 uM of N-(2-(1H-Indol-3-yl)ethyl)-1-(4-bromobenzoyl)-9H-pyrido(3,4-b)indole-3-carboxamide by Chou-Talalay method. The class given is functional.
Assay [15] can be described thus: Synergistic antiproliferative activity against docetaxel-resistant human MDA-MB-231-DTR cells assessed as combination index at 4 uM incubated for 72 hrs in presence of 4 uM of N-(2-(1H-Indol-3-yl)ethyl)-1-(4-bromobenzoyl)-9H-pyrido(3,4-b)indole-3-carboxamide by Chou-Talalay method. The class given is functional.
The test system of assay [16] is MDA-MB-231. Put plainly: Antiproliferative activity against human MDA-MB-231 cells assessed as reduction in cell viability incubated for 72 hrs by MTT assay. The class given is functional, cell-based. The following applies: MDA-MB-231, 72 h.
Assay [17] is described as follows: Antiproliferative activity against docetaxel-resistant human MDA-MB-231-DTR cells assessed as reduction in cell viability incubated for 72 hrs by sulforhodamine B assay. The class given is functional, cell-based. The following applies: MDA-MB-231, 72 h. For orientation: The SRB assay estimates cell density from bound dye.
Assay [18] in a line: Antiproliferative activity against docetaxel-resistant human MDA-MB-231-DTR cells assessed as reduction in cell viability incubated for 72 hrs by MTT assay. Format: functional, cell-based. The following applies: MDA-MB-231, 72 h.
Assay [19] concerns the target Signal transducer and activator of transcription 3 (Homo sapiens) (UniProt P40763). The assay is described as follows: Binding affinity to STAT3 in docetaxel-resistant human MDA-MB-231-DTR cells at 20 uM incubated for 1 hrs by streptavidin bead based pull-down assay. The class given is cell-based.
The nature of assay [20]: Antiproliferative activity against […] cells assessed as reduction in cell viability incubated for 72 hrs by MTT assay. Format: functional, cell-based.

Calls of active or inactive are those of the source. No cut-off for these calls is given here.

Usually IC50 stands for the concentration at which inhibition is half-maximal.

Sequence of Signal transducer and activator of transcription 3 (Homo sapiens) (P40763 whole entry): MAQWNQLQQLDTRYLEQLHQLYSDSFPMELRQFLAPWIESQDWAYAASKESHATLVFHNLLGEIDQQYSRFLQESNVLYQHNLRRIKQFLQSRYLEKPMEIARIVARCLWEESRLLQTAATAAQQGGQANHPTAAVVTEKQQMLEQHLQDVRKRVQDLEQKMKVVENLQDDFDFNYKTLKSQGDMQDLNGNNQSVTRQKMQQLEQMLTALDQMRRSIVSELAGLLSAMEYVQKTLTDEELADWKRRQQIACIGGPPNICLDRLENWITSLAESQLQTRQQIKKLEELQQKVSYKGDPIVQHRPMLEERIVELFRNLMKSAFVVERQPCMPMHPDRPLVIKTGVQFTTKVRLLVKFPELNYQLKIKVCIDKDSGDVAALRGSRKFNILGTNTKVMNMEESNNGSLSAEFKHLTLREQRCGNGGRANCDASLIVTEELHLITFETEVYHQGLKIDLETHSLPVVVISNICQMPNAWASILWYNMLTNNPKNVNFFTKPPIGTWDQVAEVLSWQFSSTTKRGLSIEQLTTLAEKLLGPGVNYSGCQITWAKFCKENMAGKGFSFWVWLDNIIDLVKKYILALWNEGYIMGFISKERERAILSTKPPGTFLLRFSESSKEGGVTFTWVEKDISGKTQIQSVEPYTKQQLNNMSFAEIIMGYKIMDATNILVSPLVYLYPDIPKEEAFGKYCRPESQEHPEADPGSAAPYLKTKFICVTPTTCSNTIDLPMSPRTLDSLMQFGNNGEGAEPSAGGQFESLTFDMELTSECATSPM

As for `CC(=O)O[C@@]12CO[C@@H]1C[C@H](O)[C@@]1(C)C(=O)[C@H](O)C3=C(C)[C@@H](OC(=O)[C@H](O)[C@@H](NC(=O)OC(C)(C)C)c4ccccc4)C[C@@](O)([C@@H](OC(=O)c4ccccc4)[C@H]21)C3(C)C` [DOCETAXEL ANHYDROUS], the outcome in the assay with MDA-MB-231 [1], with MDA-MB-231 [3] and with MDA-MB-231 [13] was Active. Further, the CI in [2] was 0.45; in assay [4], 0.38; in assay [5] it was 0.53; in [9] it was 0.66; in assay [10], 0.32; in assay [11] it was 0.23. In addition, the results for the CI in assay [12], in [14] and in assay [15] were 0.26, 0.32 and 0.37, respectively. Moreover, the result with MDA-MB-231 [6] and in the assay on MDA-MB-231 [8] was inactive. Also, the “Ratio IC50” value in [7] is on record as 103.5. Besides, the figures for the IC50 (with MDA-MB-231 [16]; in assay [17]; in assay [18]) were 20 nM, 1980 nM and 4680 nM, respectively.
Regarding `O=C(CCCC[C@@H]1SC[C@@H]2NC(=O)N[C@@H]21)NCCn1cc(COc2ccc3[nH]c4c(C(=O)c5ccc(Br)cc5)nc(C(=O)NCCc5c[nH]c6ccccc56)cc4c3c2)nn1`, the outcome in assay [19] was Active.
For the molecule `CC(=O)O[C@H]1C(=O)[C@@]2(C)[C@H]([C@H](OC(=O)c3ccccc3)[C@]3(O)C[C@H](OC(=O)[C@H](O)[C@@H](NC(=O)c4ccccc4)c4ccccc4)C(C)=C1C3(C)C)[C@]1(OC(C)=O)CO[C@@H]1C[C@@H]2O` [PACLITAXEL], the result with MDA-MB-231 [6] was inactive. The IC50 in [20] turned out to be 4680 nM; with MDA-MB-231 [16] it was 70 nM.
